From article PMC2099433, “The binding site for neohesperidin dihydrochalcone at the human sweet taste receptor” (BMC Structural Biology, 2007)
Changes are numbered by the printed parent chain. Where a SMILES comes first, the peptide text is derived from it.

Key:
[1] = biological target: T1, hTAS1R2 + hTAS1R3 H734A^5.47 (Homo sapiens, UniProt Q7RTX0+Q8TE23, H734A); test: Calcium response (FLIPR), hTAS1R3 mutant coexpressed with hTAS1R2; type: cell-based; details: for receptor response: mutant H734A^5.47; for EC50: variant H734A^5.47, n.f. = no response to any tested sweetener
T1 construct: expressed in transfected cells; host or cells: HEK293T cells stably expressing G16Gust44
T1 sequence (Q8TE23 20-839): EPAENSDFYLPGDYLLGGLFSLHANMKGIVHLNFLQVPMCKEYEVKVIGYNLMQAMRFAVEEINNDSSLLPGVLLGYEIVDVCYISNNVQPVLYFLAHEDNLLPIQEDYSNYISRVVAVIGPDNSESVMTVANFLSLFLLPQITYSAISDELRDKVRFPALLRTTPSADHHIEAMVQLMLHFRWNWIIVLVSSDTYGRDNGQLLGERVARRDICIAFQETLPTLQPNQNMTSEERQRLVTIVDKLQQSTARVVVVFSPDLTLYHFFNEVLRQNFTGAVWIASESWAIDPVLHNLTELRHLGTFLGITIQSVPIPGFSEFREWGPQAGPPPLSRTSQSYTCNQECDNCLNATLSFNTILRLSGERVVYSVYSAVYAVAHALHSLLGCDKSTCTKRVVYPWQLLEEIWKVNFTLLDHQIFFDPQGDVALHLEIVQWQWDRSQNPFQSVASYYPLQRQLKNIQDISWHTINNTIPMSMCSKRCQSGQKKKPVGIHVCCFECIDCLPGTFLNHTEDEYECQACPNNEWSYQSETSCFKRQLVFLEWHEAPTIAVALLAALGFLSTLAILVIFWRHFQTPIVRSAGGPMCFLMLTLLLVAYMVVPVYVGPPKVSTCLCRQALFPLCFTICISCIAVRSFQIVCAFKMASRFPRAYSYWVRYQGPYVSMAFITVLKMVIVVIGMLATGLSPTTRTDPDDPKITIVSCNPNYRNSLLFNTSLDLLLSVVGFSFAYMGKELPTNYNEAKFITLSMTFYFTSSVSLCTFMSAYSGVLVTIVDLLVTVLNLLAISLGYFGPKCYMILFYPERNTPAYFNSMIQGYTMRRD
T1 sequence (Q7RTX0 21-852 H734A): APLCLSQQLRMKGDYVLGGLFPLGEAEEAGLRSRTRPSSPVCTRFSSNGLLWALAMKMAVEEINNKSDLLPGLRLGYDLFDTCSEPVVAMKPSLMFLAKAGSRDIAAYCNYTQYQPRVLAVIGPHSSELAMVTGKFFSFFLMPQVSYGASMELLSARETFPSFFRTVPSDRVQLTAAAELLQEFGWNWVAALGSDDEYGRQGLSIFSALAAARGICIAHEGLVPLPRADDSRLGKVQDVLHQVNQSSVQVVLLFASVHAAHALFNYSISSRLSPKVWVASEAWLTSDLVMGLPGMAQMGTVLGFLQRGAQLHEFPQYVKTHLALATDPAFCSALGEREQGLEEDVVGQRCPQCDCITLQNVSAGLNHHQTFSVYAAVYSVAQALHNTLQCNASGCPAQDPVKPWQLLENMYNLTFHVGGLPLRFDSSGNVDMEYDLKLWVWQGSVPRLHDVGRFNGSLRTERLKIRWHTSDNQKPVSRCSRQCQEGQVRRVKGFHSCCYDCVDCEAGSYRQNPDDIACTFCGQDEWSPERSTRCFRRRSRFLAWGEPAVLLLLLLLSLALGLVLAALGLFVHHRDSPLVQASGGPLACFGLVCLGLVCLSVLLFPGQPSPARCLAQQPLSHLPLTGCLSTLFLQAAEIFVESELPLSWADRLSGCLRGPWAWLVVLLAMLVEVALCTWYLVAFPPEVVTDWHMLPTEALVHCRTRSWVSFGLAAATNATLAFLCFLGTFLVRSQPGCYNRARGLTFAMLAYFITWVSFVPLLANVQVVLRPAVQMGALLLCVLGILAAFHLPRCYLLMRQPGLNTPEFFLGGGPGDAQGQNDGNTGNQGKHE
Procedure: (§1) The cDNAs for TAS1Rs tagged at the C-terminus with the herpes simplex virus glycoprotein D (HSV) were transiently transfected into HEK293T cells stably expressing the chimeric G-protein subunit G16Gust44 [44] using Lipofectamine 2000 (Invitrogen, Carlsbad, CA) according to the manufacturer's protocol. 3–4 hours after transfection, DMEM was replaced by low-glucose DMEM supplemented with GlutaMAX and 10% dialyzed FBS (Invitrogen, Carlsbad, CA). 24 h post transfection, cells were loaded for 1 h with the calcium sensitive dye Fluo4-AM (2 μg/ml in DMEM, Molecular Probes, Carlsbad, CA). […] We monitored calcium mobilization following receptor stimulation with sweet tastants by an automated fluorometric imaging plate reader (FLIPR, Molecular Devices, Sunnyvale, CA). Compounds used as stimuli (Sigma-Aldrich, St. Louis, MO; Merck, Whitehouse Station, NJ) were dissolved in C1 solution. All data were collected from at least three independent experiments carried out in duplicate. The obtained calcium signals were corrected for the response of mock transfected cells and normalized to the fluorescence of cells prior to the application of the stimulus using ΔF/F = (F-F0)/F0.

[2] = biological target: T2, hTAS1R2 + hTAS1R3 C801I^7.39 (Homo sapiens, UniProt Q7RTX0+Q8TE23, C801I); test: as above; type: cell-based; details: for EC50 / Emax: variant C801I^7.39; for Emax: read-out: maximal signal (% of wt)
T2 construct: expressed in transfected cells; host or cells: HEK293T cells stably expressing G16Gust44
T2 sequence (Q7RTX0 21-852 C801I): T1 sequence (Q7RTX0 21-852 H734A) with A714H, C781I
T2 sequence (Q8TE23 20-839): T1 sequence (Q8TE23 20-839)
Procedure: as §1

receptor response [1]	EC50 [1]	EC50 [2]	Emax [2]	Compound	receptor activation ([2]; mutant C801I^7.39, any tested concentration)
did not respond	n.f.	1600 ± 700 µM	70 ± 13%	COc1ccc(CCC(=O)c2c(O)cc(O[C@@H]3O[C@H](CO)[C@@H](O)[C@H](O)[C@H]3O[C@@H]3O[C@@H](C)[C@H](O)[C@@H](O)[C@H]3O)cc2O)cc1O [NHDC, neohesperidin dihydrochalcone]	–
did not respond	–	–	–	CC1=CC(=O)NS(=O)(=O)O1 [acesulfame K]	–
did not respond	n.f.	1200 ± 500 µM	50 ± 9%	COC(=O)[C@H](Cc1ccccc1)NC(=O)[C@@H](N)CC(=O)O [aspartame] (HELM PEPTIDE1{D.F.[CO[*:1]]}$$$$V2.0)	–
did not respond	–	–	–	O=S(=O)(O)NC1CCCCC1 [cyclamate]	could not be activated at any tested concentration
